Settings: 21 days
Protocol: Etonogestrel (ETO) solubility in the hydrophilic polyurethane, Hydrothane AL 25-80A, was determined by evaluating its in-vitro elution (IVE) from core sheath IVRs containing ETO in the core at various loadings.
The core polymer was Hydrothane AL 25-80A and the sheath polymer EVA VA content 28% w/w.

Row | Csat in Hydrothane AL 25-80A (concentration concluded to be below Csat) [%] | Compound
1 | > 0.25 | C#C[C@]1(O)CC[C@H]2[C@@H]3CCc4cc(O)ccc4[C@H]3CC[C@@]21C [EE, Ethinyl Estradiol]
2 | > 1.00 | C#C[C@]1(O)CC[C@H]2[C@@H]3CCC4=CC(=O)CC[C@@H]4[C@H]3C(=C)C[C@@]21CC [ETO, Etonogestrel]

Reference: patent US9872829B2, “Core sheath drug delivery devices” (Chemo Research, S.L., priority 2012, dated 2018)
